Reference: US10849847B2, “Compositions and methods for treating rosacea and acne” (Foamix Pharmaceuticals Ltd., priority 2016, dated 2020)
Read-outs that look alike come from different tables or passages of the source.

Columns and labels:
[1] = for Compatibility with Minocycline HCl (observations): on dissolution / storage; for Compatibility with Minocycline HCl: tested after the storage for up to 3 weeks
Protocol: The ratio between MCH and the tested excipient is detailed below. Visual inspection was the major criterion for indication of compatibility. The color of intact MCH suspension is pale yellow; and any change of color (e.g., to dark orange, red, green, brown and black) indicates oxidation or degradation.
Other than hydrogenated castor oil, beeswax, paraffin and hard fat, the aforesaid items listed are oily emollients.
Additives were tested for compatibility with MCH. […] In parallel, antioxidants were added to the MCH suspensions comprising water.

[2] = Doxycycline Hyclate Compatibility Test; format: physicochemical
Protocol: (§1) A similar compatibility study was conducted for Doxycycline Hyclate and Doxycycline Monohydrate.
(§2) Different compositions of hydrophilic and hydrophobic solvents containing Doxycycline Hyclate (Set I and Set II) and Doxycycline Monohydrate (Set III) were prepared by weighing the antibiotic in a glass vial and shaking overnight with each solvent investigated.
Group II included Doxycycline Hyclate mixed with various vehicles with addition of antioxidants like alpha tocopherol, butylated hydroxytoluene (BHT), and ascorbic acid.

[3] = Doxycycline Monohydrate Compatibility Test; format: physicochemical
Protocol: as §1, §2
A similar compatibility test was performed on another form of Doxycycline—Doxycycline Monohydrate.

[4] = Phase I PK study in adults with acne: topical minocycline foam 4% for 21 days vs single oral dose of minocycline (FX2014-03); format: in vivo, human; conditions: Period 1, single oral dose ~1 mg/kg minocycline, Day 1-5; for AUC(0-inf) / AUC / Cmax / half-life / Tmax: both sexes, human, plasma, po, 1 mg/kg
Protocol: Each application was approximately 4 g (a maximal-use dose). […] On the day of initial dosing (Day 1), subjects checked into the clinic where they were confined until 1 hour after study drug was administered. Predose clinical assessments were performed and a 1 mL blood sample for PK analysis was obtained before study drug was administered.
SUBJECTS: Adults were eligible for this study if they were 18 to 35 years of age; children were eligible for the pediatric study if they were 9 to 16 years and 11 months of age and in good health, as judged on the basis of their medical history and the screening procedures. They were required to have moderate-to-severe facial acne vulgaris as well as acne affecting at least two additional regions of the body (neck, upper chest, upper back, or arms).
On days 6, 9, 10, 11, and 16, blood samples were obtained at approximately 30 minutes before the scheduled application. […] After the final application, subjects were asked to return for additional blood sampling on days 23, 24, and 25.
BIOANALYTICAL METHODS: Blood samples were collected and centrifuged, and the separated plasma was stored at approximately −70° C.
Actual sample collection times were used for the purpose of calculating pharmacokinetic parameters. […] Geometric mean was calculated for Cmax, AUC0-tldc, AUC0-inf, and AUC0-tau, and the harmonic mean was calculated for t1/2. Analysis of multiple-dose accumulation, determination of steady state, and other pertinent comparisons of pharmacokinetic parameters across or between doses were performed using the appropriate statistical methods. […] The CIs were expressed as a percentage relative to the LSM of the reference treatment.

[5] = foam adjuvants, MCH:excipient 1:50
[6] = oily emollients, MCH:excipient 1:250, 25° C. and 40° C., maximum sixty days
[7] = mixtures stored at 25° C., 40° C. and 50° C. for two weeks
[8] = tested after the storage for up to 3 weeks
[9] = hydrophilic solvents, MCH:excipient 1:250, 25° C. and 40° C., maximum sixty days
[10] = surfactants solubilized in mineral oil, MCH:excipient 1:50

CCCCCCCCCCCCCCCC(=O)O [Palmitic acid]
Compatibility with MCH [1, 5]: compatible

CCCCCCCCCCC(CO)CCCCCCCC (centres unmarked) [Octyl dodecanol]
Compatibility with MCH [1, 6]: compatible | Compatibility with Minocycline HCl (observations) [1]: full compatibility | Compatibility with Minocycline HCl [1]: Yes | Compatibility with Doxycycline Hyclate [2, 7]: incompatibility | Compatibility with Doxycycline Hyclate [2, 8]: No | Compatibility with Doxycycline Monohydrate [3, 7]: incompatibility | Compatibility with Doxycycline Monohydrate [3, 8]: No

OCC(O)CO [Glycerin]
Compatibility with MCH [1, 9]: incompatible | Compatibility with Minocycline HCl (observations) [1]: intensive oxidation | Compatibility with Minocycline HCl [1]: No | Compatibility with Doxycycline Hyclate [2, 8]: No | Compatibility with Doxycycline Monohydrate [3, 8]: No

CCCCCCCCCCCCCCCCCC(=O)O [Stearic acid]
Compatibility with MCH [1, 5]: compatible

CCCCCCCCCCCCCCCCCC(=O)OCC(O)CO (centres unmarked) [Glyceryl monostearate]
Compatibility with MCH [1, 10]: incompatible

Sorbitan Monolaurate
Compatibility with Minocycline HCl [1]: No | Compatibility with Doxycycline Hyclate [2, 8]: No | Compatibility with Doxycycline Monohydrate [3, 8]: No

BHA/BHT
Effect of antioxidant on MCH degradation [1]: did not prevent MCH degradation

SPAN 40
Compatibility with MCH [1, 10]: incompatible

CCCCCCCC/C=C\CCCCCCCCO [Oleyl alcohol]
Compatibility with MCH [1, 5]: compatible | Compatibility with Minocycline HCl [1]: Yes | Compatibility with Doxycycline Hyclate [2, 8]: Yes

CC(O)CC(C)(C)O (centres unmarked) [Hexylene Glycol]
Compatibility with MCH [1, 9]: incompatible | Compatibility with Minocycline HCl [1]: No | Compatibility with Doxycycline Monohydrate [3, 7]: oxidized | Compatibility with Doxycycline Monohydrate [3, 8]: No

Sorbitan sesquistearate
Compatibility with MCH [1, 10]: incompatible

CC(O)CO (centres unmarked) [Propylene glycol]
Compatibility with MCH [1, 9]: incompatible | Compatibility with Minocycline HCl [1]: No | Compatibility with Doxycycline Hyclate [2, 8]: No | Compatibility with Doxycycline Monohydrate [3, 8]: No

CCCCCCCCCCCCCCCCO [Cetyl alcohol]
Compatibility with MCH [1, 5]: compatible

CCCCCCCCCCCCCCCCCCCCCCO [Behenyl alcohol]
Compatibility with MCH [1, 5]: compatible

CCCCCCCCCCCCCC(=O)OC(C)C [Isopropyl myristate]
Compatibility with MCH [1, 6]: compatible

CC1CCC(C(C)C)C(O)C1 (centres unmarked) [Menthol]
Compatibility with MCH ([1]; additives, MCH:excipient 1:50): compatible

OCCCCO [Butylene Glycol]
Compatibility with MCH [1, 9]: incompatible | Compatibility with Minocycline HCl [1]: No | Compatibility with Doxycycline Hyclate [2, 8]: No | Compatibility with Doxycycline Monohydrate [3, 8]: No

CN(C)c1ccc(O)c2c1C[C@H]1C[C@H]3[C@H](N(C)C)C(O)=C(C(N)=O)C(=O)[C@@]3(O)C(O)=C1C2=O [Solodyn]
kel, Mean [4]: 0.044 h⁻¹ | kel, Median [4]: 0.04 h⁻¹ | AUC(0-inf) ([4]; read-out: AUC0-inf, Geometric Mean): 15100 ng·h/mL | AUC(0-inf) ([4]; read-out: AUC0-inf, Mean): 15500 ng·h/mL | AUC(0-inf) ([4]; read-out: AUC0-inf, Median): 15600 ng·h/mL | AUC ([4]; read-out: AUC0-tldc, Geometric Mean): 14800 ng·h/mL | AUC ([4]; read-out: AUC0-tldc, Mean): 15200 ng·h/mL | AUC ([4]; read-out: AUC0-tldc, Median): 15400 ng·h/mL | Cmax ([4]; read-out: Cmax, Geometric Mean): 850 ng/mL | Cmax ([4]; read-out: Cmax, Mean): 873 ng/mL | Cmax ([4]; read-out: Cmax, Median): 801 ng/mL | half-life ([4]; read-out: T1/2, Harmonic Mean (converted)): 15.8 h | half-life ([4]; read-out: T1/2, Mean (converted)): 16 h | half-life ([4]; read-out: T1/2, Median (converted)): 15.9 h | Tmax ([4]; read-out: Tmax, Mean): 2.7 h | Tmax ([4]; read-out: Tmax, Median): 3 h

CCCCCCCCCCCCCCCCCCO [Stearyl alcohol]
Compatibility with MCH [1, 5]: compatible | Compatibility with Minocycline HCl [1]: Yes | Compatibility with Doxycycline Hyclate [2, 8]: Yes

SPAN 60
Compatibility with MCH [1, 10]: incompatible

Cyclomethicone
Compatibility with MCH [1, 6]: compatible

C[Si]1(C)O[Si](C)(C)O[Si](C)(C)O[Si](C)(C)O[Si](C)(C)O1 [Cyclomethicone 5 NF]
Compatibility with Minocycline HCl [1]: Yes | Compatibility with Doxycycline Hyclate [2, 8]: Yes | Compatibility with Doxycycline Monohydrate [3, 8]: Yes

CCCCCCCC/C=C\CCCCCCCC(=O)O [Oleic acid]
Compatibility with MCH [1, 5]: compatible

CC(C)CCCCCCCCCCCCCCC(=O)O [Isostearic acid]
Compatibility with MCH [1, 5]: not compatible | Compatibility with Minocycline HCl [1]: No | Compatibility with Doxycycline Hyclate [2, 8]: Yes

CC(C)CCCCCCCCCCCCCCCO [Isostearyl alcohol]
Compatibility with MCH [1, 5]: compatible

CCCCCCCCCCCCCCO [Myristyl alcohol]
Compatibility with MCH [1, 5]: compatible | Compatibility with Minocycline HCl [1]: Yes | Compatibility with Doxycycline Hyclate [2, 8]: Yes

C[S+](C)[O-] [Dimethyl Sulfoxide]
Compatibility with MCH [1, 9]: incompatible

CCCOC(=O)c1cc(O)c(O)c(O)c1 [propyl gallate]
Effect of antioxidant on MCH degradation [1]: did not prevent MCH degradation

Sorbitan Monostearate
Compatibility with Minocycline HCl [1]: Yes | Compatibility with Doxycycline Hyclate [2, 8]: Yes

CCOCCOCCO [Diethylene glycol monoethyl ether]
Compatibility with MCH [1, 9]: incompatible

CO[C@H]1CO[C@H]2[C@@H]1OC[C@H]2OC [Dimethyl Isosorbide]
Compatibility with MCH [1, 9]: incompatible | Compatibility with Minocycline HCl [1]: No | Compatibility with Doxycycline Hyclate [2, 8]: No | Compatibility with Doxycycline Monohydrate [3, 8]: No

CC(C)OC(=O)CCCCC(=O)OC(C)C [diisopropyl adipate]
Compatibility with MCH [1, 6]: compatible | Compatibility with Minocycline HCl [1]: Yes | Compatibility with Doxycycline Hyclate [2, 8]: Yes | Compatibility with Doxycycline Monohydrate [3, 8]: No

SPAN 80
Compatibility with MCH [1, 10]: incompatible
